Experimental data: US20250368628A1, “METHODS AND COMPOUNDS FOR MODULATING INHERITED GENETIC DISEASES” (Design Therapeutics, Inc., priority 2022, published 2025)

Columns and labels:
[1] = system: Myotonic Dystrophy 1 affected patient fibroblasts (Coriel GM04602; 1600 CTG repeats); assay: DM1 foci reduction assay (EC50 assay; CAG10-Cy3 FISH, foci per nucleus); type: cell-based; conditions: Homo sapiens, Fibroblast; DM1 patient fibroblasts, 48 h treatment, foci per nucleus; read-out: DM1 EC50, 48 h
In short: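 Foci per nucleus counted by 20× imaging of 4 areas per well, after overnight FISH with 5 nM CAG10-Cy3 and DAPI staining of fixed, permeabilized cells. DM1 fibroblasts (GM04602, 1600 CTG) were dosed 48 h at 37 °C, 8 points, 3-fold dilutions, 3 μM top concentration.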

[2] = system: F35T cells; assay: Foci reduction in FECD (CAG10-Cy3 FISH, foci per nucleus); type: cell-based; conditions: F35T cells, 48 h treatment, foci per nucleus; read-out: FECD EC50, 48 h
In short: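 Foci per nucleus were counted by imaging after overnight CAG10-Cy3 FISH at 37 °C (30% formamide, 2×SSC) with DAPI counterstain, on PFA-fixed, ethanol-permeabilized F35T cells. The cells, seeded at 5000 per well in supplemented Opti-MEM, had received 8-point compound dilutions for 48 h at 37 °C.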

Structure (SMILES)	EC50 [1]	EC50 [2]
Cn1cc(NC(=O)c2nc(NC(=O)CCNC(=O)c3cc(NC(=O)c4nccn4C)cn3C)cn2C)cc1C(=O)NCCCC(=O)Nc1cn(C)c(C(=O)NCCC(=O)Nc2cc(C(=O)Nc3cn(C)c(C(=O)NCCC(=O)NCC#Cc4ccccc4)n3)n(C)c2)n1 [Compound B-136]	100 to 500 nM	100 to 500 nM
Cn1cc(NC(=O)c2nc(NC(=O)CCNC(=O)c3cc(NC(=O)c4nccn4C)cn3C)cn2C)cc1C(=O)NCCCC(=O)Nc1cn(C)c(C(=O)NCCC(=O)Nc2cc(C(=O)Nc3cn(C)c(C(=O)NCCC(=O)N4CCC(C5CNC5)CC4)n3)n(C)c2)n1 [Compound B-142]	100 to 500 nM	500 to 1000 nM
CN1CC(C2CCN(C(=O)CCNC(=O)c3nc(NC(=O)c4cc(NC(=O)CCNC(=O)c5nc(NC(=O)CCCNC(=O)c6cc(NC(=O)c7nc(NC(=O)CCNC(=O)c8cc(NC(=O)c9nccn9C)cn8C)cn7C)cn6C)cn5C)cn4C)cn3C)CC2)C1 [Compound B-143]	100 to 500 nM	100 to 500 nM
CCN(CC)CCCC[C@H](NC(C)=O)C(=O)Nc1ccc(OCCOCCOCCOCCOCCOCCOCCNC(=O)CCNC(=O)c2nc(NC(=O)c3cc(NC(=O)CCNC(=O)c4nc(NC(=O)CCCNC(=O)c5cc(NC(=O)c6nc(NC(=O)CCNC(=O)c7cc(NC(=O)c8nccn8C)cn7C)cn6C)cn5C)cn4C)cn3C)cn2C)cc1 [Compound B-144]	500 to 1000 nM	500 to 1000 nM
CCN(CC)CCCC[C@H](NC(C)=O)C(=O)Nc1ccc(OCCOCCOCCOCCOCCNC(=O)CCNC(=O)c2nc(NC(=O)c3cc(NC(=O)CCNC(=O)c4nc(NC(=O)CCCNC(=O)c5cc(NC(=O)c6nc(NC(=O)CCNC(=O)c7cc(NC(=O)c8nccn8C)cn7C)cn6C)cn5C)cn4C)cn3C)cn2C)cc1 [Compound B-146]	100 to 500 nM	100 to 500 nM
CCN(CC)CCCC[C@H](NC(C)=O)C(=O)Nc1ccc(OCCOCCOCCNC(=O)CCNC(=O)c2nc(NC(=O)c3cc(NC(=O)CCNC(=O)c4nc(NC(=O)CCCNC(=O)c5cc(NC(=O)c6nc(NC(=O)CCNC(=O)c7cc(NC(=O)c8nccn8C)cn7C)cn6C)cn5C)cn4C)cn3C)cn2C)cc1 [Compound B-147]	100 to 500 nM	100 to 500 nM
CCN(CC)CCCC[C@@H](NC(C)=O)C(=O)Nc1ccc(OCCOCCOCCNC(=O)CCNC(=O)c2nc(NC(=O)c3cc(NC(=O)CCNC(=O)c4nc(NC(=O)CCCNC(=O)c5cc(NC(=O)c6nc(NC(=O)CCNC(=O)c7cc(NC(=O)c8nccn8C)cn7C)cn6C)cn5C)cn4C)cn3C)cn2C)cc1 [Compound B-148]	> 1000 nM	100 to 500 nM
CCN(CC)CCCC[C@H](NC(C)=O)C(=O)Nc1ccc(CNC(=O)CCNC(=O)c2nc(NC(=O)c3cc(NC(=O)CCNC(=O)c4nc(NC(=O)CCCNC(=O)c5cc(NC(=O)c6nc(NC(=O)CCNC(=O)c7cc(NC(=O)c8nccn8C)cn7C)cn6C)cn5C)cn4C)cn3C)cn2C)cc1 [Compound B-149]	100 to 500 nM	> 1000 nM
Cn1cc(NC(=O)c2nc(NC(=O)CCNC(=O)c3cc(NC(=O)c4nccn4C)cn3C)cn2C)cc1C(=O)NCCCC(=O)Nc1cn(C)c(C(=O)NCCC(=O)Nc2cc(C(=O)Nc3cn(C)c(C(=O)NCCC(=O)N[C@@H](CCCNC(=N)N)C(=O)N[C@@H](CCCNC(=N)N)C(=O)NCCCCN=[N+]=[N-])n3)n(C)c2)n1 [Compound B-150]	> 1000 nM	> 1000 nM
Cn1cc(NC(=O)c2nc(NC(=O)CCNC(=O)c3cc(NC(=O)c4nccn4C)cn3C)cn2C)cc1C(=O)NCCCC(=O)Nc1cn(C)c(C(=O)NCCC(=O)Nc2cc(C(=O)Nc3cn(C)c(C(=O)NCCC(=O)N[C@@H](CCCNC(=N)N)C(=O)N[C@@H](CCCNC(=N)N)C(=O)N[C@@H](CCCNC(=N)N)C(=O)N[C@@H](CCCNC(=N)N)C(=O)NCCCCN=[N+]=[N-])n3)n(C)c2)n1 [Compound B-151]	> 1000 nM	100 to 500 nM
Cn1cc(NC(=O)c2nc(NC(=O)CCNC(=O)c3cc(NC(=O)c4nccn4C)cn3C)cn2C)cc1C(=O)NCCCC(=O)Nc1cn(C)c(C(=O)NCCC(=O)Nc2cc(C(=O)Nc3cn(C)c(C(=O)NCCC(=O)NCCCCC(=O)N[C@@H](CCCNC(=N)N)C(=O)N[C@@H](CCCNC(=N)N)C(=O)NCCCCN=[N+]=[N-])n3)n(C)c2)n1 [Compound B-154]	> 1000 nM	100 to 500 nM
